Measurements taken from patent US11976057B2, “MrgX2 antagonists” (GlaxoSmithKline Intellectual Property Development Limited, priority 2020, dated 2024).
pIC50: −log10 of the molar value.

Molecular target: T1, human MRGPRX2 (Homo sapiens, UniProt Q96LB1)
T1 sequence (Q96LB1 1-330): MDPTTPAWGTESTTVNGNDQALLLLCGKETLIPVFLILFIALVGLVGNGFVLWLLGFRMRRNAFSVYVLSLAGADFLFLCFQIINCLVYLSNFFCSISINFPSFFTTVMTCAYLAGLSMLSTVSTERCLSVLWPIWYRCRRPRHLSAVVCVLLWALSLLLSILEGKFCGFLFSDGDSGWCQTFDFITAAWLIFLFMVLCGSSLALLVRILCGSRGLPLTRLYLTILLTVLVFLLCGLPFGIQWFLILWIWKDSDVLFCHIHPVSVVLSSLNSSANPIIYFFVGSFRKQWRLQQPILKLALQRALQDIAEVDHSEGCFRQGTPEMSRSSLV
Assay: Ca2+ mobilization assay (FLIPR TETRA): inhibition of Cortistatin-14 mediated MRGPRX2 activation

Compared with `C[C@@H](C(=O)Nc1ccc(F)cn1)N1CCC(F)(F)[C@@H](c2cc(N)c(=O)[nH]n2)C1` [Example 143, (S)-2-((R)-3-(5-amino-6-oxo-1,6-dihydropyridazin-3-yl)-4,4-difluoropiperidin-1-yl)-N-(5-fluoropyridin-2-yl)propanamide], `C[C@@H](C(=O)Nc1ccc(F)cn1)N1CCC(F)(F)[C@@H](c2cc[n+]([O-])cc2)C1` [Example 113, 4-((S)-4,4-difluoro-1-((S)-1-((5-fluoropyridin-2-yl)amino)-1-oxopropan-2-yl)piperidin-3-yl)pyridine 1-oxide] is lower in pIC50: 7.00 to 8.00 for the first, 5.50 to 7.00 for the second.

`C[C@@H](C(=O)Nc1ccc(Oc2ccc(F)cc2F)cn1)N1CCC(F)(F)C(c2c[nH]c(=O)c(C(O)C(F)(F)F)c2)C1` (stereo partly drawn) [Example 212, (2S)-2-(4,4-difluoro-3-(6-oxo-5-(2,2,2-trifluoro-1-hydroxyethyl)-1,6-dihydropyridin-3-yl)piperidin-1-yl)-N-(5-(2,4-difluorophenoxy)pyridin-2-yl)propanamide] and `CC(C(=O)Nc1ccc(Oc2ccc(F)cc2)cn1)N1CCC(F)(F)C(c2cc[n+]([O-])c(C(O)C(F)(F)F)c2)C1` (stereo not drawn) [Example 257] cannot be ordered by pIC50: no less than 8.00 for the first, 7.00 to 8.00 for the second.

First: CC(C(=O)Nc1ccc(CC2CC2)cn1)N1CCC(F)(F)[C@@H](c2ccc(=O)[nH]c2)C1 (stereo partly drawn) [Example 41, N-(5-(cyclopropyl-methyl)pyridin-2-yl)-2-((S)-4,4-difluoro-3-(6-oxo-1,6-dihydropyridin-3-yl)piperidin-1-yl)propanamide]
Second: C[C@@H](C(=O)Nc1ccc(CC2CCC2)cn1)N1CCC(F)(F)[C@@H](c2ccc(=O)[nH]c2)C1 [Example 84, (S)-N-(5-(cyclobutyl-methyl)pyridin-2-yl)-2-((S)-4,4-difluoro-3-(6-oxo-1,6-dihydropyridin-3-yl)piperidin-1-yl)propanamide]
The pIC50 of the first is lower: 5.50 to 7.00 for the first, 7.00 to 8.00 for the second. The second is the more potent here.

`C[C@@H](C(=O)Nc1ccc(Cl)cn1)N1CCC(F)(F)[C@@H](c2cc[n+]([O-])cc2)C1` [Example 112, 4-((S)-1-((S)-1-((5-chloropyridin-2-yl)amino)-1-oxopropan-2-yl)-4,4-difluoropiperidin-3-yl)pyridine 1-oxide] and `C[C@@H](C(=O)Nc1ccc(C2CC2)cn1)N1CCC(F)(F)[C@@H](c2c[nH]c(=O)cn2)C1` [Example 137, (S)-N-(5-cyclopropylpyridin-2-yl)-2-((R)-4,4-difluoro-3-(5-oxo-4,5-dihydropyrazin-2-yl)piperidin-1-yl)propanamide] fall in the same range of pIC50: 5.50 to 7.00 for the first, 5.50 to 7.00 for the second.

Compound `C[C@@H](C(=O)Nc1ccc(Oc2ncc(F)cc2F)cn1)[C@H]1CCC(F)(F)[C@@H](c2ccc(=O)[nH]c2)C1` [Example 281, (R)-2-((1S,3R)-4,4-difluoro-3-(6-oxo-1,6-dihydropyridin-3-yl)cyclohexyl)-N-(5-((3,5-difluoropyridin-2-yl)oxy)pyridin-2-yl)propanamide] has a pIC50 of no less than 8.00.
